The source of these data is PMC9143527, “A Novel Strategy for Regulating mRNA’s Degradation via Interfering the AUF1’s Binding to mRNA” (Molecules, 2022).

The target in one test is T1, AUF1 (endogenous, CETSA) (Homo sapiens, UniProt Q14103).
T1 construct: gene HNRNPD; endogenous AUF1 in intact cells, detected by Western blot
T1 sequence (Q14103 2-355): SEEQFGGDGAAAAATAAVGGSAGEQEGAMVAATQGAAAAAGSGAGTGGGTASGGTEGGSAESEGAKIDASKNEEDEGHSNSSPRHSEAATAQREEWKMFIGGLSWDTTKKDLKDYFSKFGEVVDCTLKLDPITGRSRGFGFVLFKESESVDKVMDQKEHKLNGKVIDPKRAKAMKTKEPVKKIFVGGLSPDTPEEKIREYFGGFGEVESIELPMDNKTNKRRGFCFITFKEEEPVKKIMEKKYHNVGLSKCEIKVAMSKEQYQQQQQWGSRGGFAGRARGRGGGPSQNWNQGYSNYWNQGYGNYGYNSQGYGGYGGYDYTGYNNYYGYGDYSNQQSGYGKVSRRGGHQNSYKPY
Briefly: CETSA, Western blot. The test is classed as cell-based. As to conditions: HepG2, SK-MEL-2, HCT-116 cells; 1 h treatment at 1, 3.5 or 6 uM.

Test [1] concerns the target T2, p37AUF1 (AUF1, hnRNP D) (Homo sapiens, UniProt Q14103).
T2 construct: gene HNRNPD; recombinant purified p37 isoform; expression details and tags only in supplement
T2 sequence (Q14103 2-287 isoform Q14103-4): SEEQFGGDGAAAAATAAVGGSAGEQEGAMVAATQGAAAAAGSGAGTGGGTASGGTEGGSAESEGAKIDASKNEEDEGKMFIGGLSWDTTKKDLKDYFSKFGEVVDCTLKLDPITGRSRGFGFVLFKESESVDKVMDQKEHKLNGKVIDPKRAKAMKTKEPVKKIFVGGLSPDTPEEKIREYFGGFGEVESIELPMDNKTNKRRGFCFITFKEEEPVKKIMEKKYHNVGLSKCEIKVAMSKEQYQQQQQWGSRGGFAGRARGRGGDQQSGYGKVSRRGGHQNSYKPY
Briefly: REMSA, inhibition of AUF1-RNA complex formation. The class given is binding. To be noted: 750 nM AUF1, 250 nM FAM-labelled TNF ARE RNA; 10 mM Tris-HCl pH 8.0, 50 mM KCl, 2 mM DTT, 0.5 mM EDTA; on ice.

Test [2] concerns the target T2, p37AUF1 (AUF1, hnRNP D). Briefly: SPR (Biacore 8K, CM5 chip, amine coupling). The class given is binding. To be noted: 20 mM PB pH 7.4 at immobilization; 5% DMSO; compound at 0-80 uM. (In SPR one partner is held on a chip, and binding of the other changes the refractive index at the surface.)

As to `Nc1nc(Nc2ccc(S(N)(=O)=O)cc2)nn1C(=O)c1c(F)cccc1F` [JNJ-7706621], the Tm entry on AUF1 (endogenous, CETSA) was “The melting temperature fitted from the curve in each cell decreased when treated with JNJ-7706621”. Also, at p37AUF1 (AUF1, hnRNP D) [1], the “REMSA, inhibition of AUF1-RNA complex formation” value is “After adding increasing JNJ-7706621, the bands representing RNA-AUF1 complex weakened”. At p37AUF1 (AUF1, hnRNP D) [2], the “SPR (Biacore 8K, CM5 chip, amine coupling)” value is reported as “only one compound, JNJ-7706621, showed a typical binding curve shape”.
